Test results as given in patent US9464062B2, “Disubstituted oxazolidin-2-ones 5-hydroxytryptamine receptor 2B activity modulators” (TEMPLE UNIVERSITY—OF THE COMMONWEALTH SYSTEM OF HIGHER …, priority 2012, dated 2016).

Target: 5HT2B receptors (Homo sapiens (Human), UniProt P41595)
Assay: Radiolabel Binding Studies for Serotonin 5HT2B receptors, method 1 ([3H]LSD competition)
Settings: for IC50: [3H]LSD radioligand; for inhibition at 10 µM: single concentration 10 uM, inhibition of [3H]LSD binding, read-out: 5-HT2B % inhib @10 uM
Experimental: A solution of the compound of the disclosure to be tested is prepared as a 1-mg/ml stock in Assay Buffer (50 mM Tris-HCl, 10 mM MgCl2, 1 mM EDTA, pH 7.4) or DMSO according to its solubility. A 1-mg/ml stock of the reference compound 5-hydroxytryptamine (5-HT) is also prepared as a positive control. Eleven dilutions (5× assay concentration) of the compound of the disclosure and 5-HT are prepared in the Assay Buffer by serial dilution to yield final corresponding assay concentrations ranging from […].
A stock concentration of 5 nM [^3H]LSD (lysergic acid diethyl amide) is prepared in Assay Buffer. Aliquots (50 μl) of radioligand are dispensed into the wells of a 96-well plate containing 100 μl of Assay Buffer. Duplicate 50-μl aliquots of the compound of the disclosure test and 5-HT positive control reference compound serial dilutions are added.
Membrane fractions of cells expressing recombinant 5HT2B receptors (50 μL) are dispensed into each well. The membranes are prepared from stably transfected c ell lines expressing 5HT2B receptors cultured on 10-cm plates by harvesting PBS-rinsed monolayers, resuspending and lysing the monolayers in chilled, hypotonic 50 mM Tris-HCl, pH 7.4, centrifuging at 20,000×g, decanting the supernatant and storing at −80° C. The membrane preparations are resuspended in 3 ml of chilled Assay Buffer and homogenized by several passages through a 26 gauge needle before use in the assay.
The 250-μl reactions are incubated at room temperature for 1.5 hours, then harvested by rapid filtration onto 0.3% polyethyleneimine-treated, 96-well filter mats using a 96-well Filtermate harvester. Four rapid 500-μl washes are performed with chilled Assay Buffer to reduce non-specific binding. The filter mats are dried, then scintillant is added to the filters and the radioactivity retained on the filters is counted in a scintillation counter.
Raw data (dpm) representing total radioligand binding (i.e., specific+non-specific binding) are plotted as a function of the logarithm of the molar concentration of the competitor (i.e., test or reference compound). Non-linear regression of the normalized (i.e., percent radioligand binding compared to that observed in the absence of test or reference compound) raw data is performed in […] (GraphPad Software, Inc.) using the built-in three parameter logistic model describing ligand competition binding to radioligand-labeled sites: y=bottom+[(top−bottom)/(1+[…])] where “bottom” is the residual radioligand binding measured in the presence of 10 μM reference compound (i.e., non-specific binding) and “top” is the total radioligand binding observed in the absence of competitor. The log IC50 (i.e., the log of the ligand concentration that reduces radioligand binding by 50%) is thus estimated from the data and used to obtain the Ki by applying the Cheng-Prusoff approximation: Ki=IC50/(1+[ligand]/KD) where “[ligand]” is the assay radioligand concentration and “KD” is the affinity constant of the radioligand for the target receptor.
Compounds of the disclosure are also screened at a single concentration of 10 μM using the same method described for the Radiolabel Binding Studies for Serotonin 5HT2B receptors, method 1 to determine the percent inhibition of [^3H]LSD binding.

Sequence of 5HT2B receptors (P41595 whole entry): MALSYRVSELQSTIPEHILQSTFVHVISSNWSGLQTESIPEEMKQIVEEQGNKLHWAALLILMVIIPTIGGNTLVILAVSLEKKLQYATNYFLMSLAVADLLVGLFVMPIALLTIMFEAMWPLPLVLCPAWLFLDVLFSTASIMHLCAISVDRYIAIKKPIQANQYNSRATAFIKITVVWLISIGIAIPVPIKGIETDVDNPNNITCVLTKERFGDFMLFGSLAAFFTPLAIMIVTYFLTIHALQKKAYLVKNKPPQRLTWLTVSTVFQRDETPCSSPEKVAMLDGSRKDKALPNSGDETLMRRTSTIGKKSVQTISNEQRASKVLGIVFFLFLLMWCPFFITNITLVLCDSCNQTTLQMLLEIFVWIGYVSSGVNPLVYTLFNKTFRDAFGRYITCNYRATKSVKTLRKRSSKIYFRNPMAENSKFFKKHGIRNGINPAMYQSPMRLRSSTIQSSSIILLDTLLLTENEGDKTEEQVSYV

Row | Compound | IC50 | inhibition at 10 µM
1 | C=CCN1CC(CN2CCN(C(c3ccccc3)c3ccccc3)CC2)OC1=O (stereo not shown) [Entry 1] | 0.126 µM | 91.1%
2 | O=C1OC(CN2CCN(C(c3ccccc3)c3ccccc3)CC2)CN1C1CCCCC1 (stereo not shown) [Entry 2] |  | 91.4%
3 | CC(C)N1CC(CN2CCN(C(c3ccccc3)c3ccccc3)CC2)OC1=O (stereo not shown) [Entry 3] | 0.274 µM | 84.9%
4 | O=C1OC(CN2CCN(C(c3ccccc3)c3ccccc3)CC2)CN1C1CCC1 (stereo not shown) [Entry 4] | 0.19 µM | 87.3%
5 | CC(C)(C)N1CC(CN2CCN(C(c3ccccc3)c3ccccc3)CC2)OC1=O (stereo not shown) [Entry 6] | 1.87 µM | 59.3%

Now from value to compound:

Row | IC50 | inhibition at 10 µM | Compound
6 | 0.041 µM | 94.1% | O=C1OC(CN2CCN(C(c3ccccc3)c3ccccc3)CC2)CN1C1CCCC1 (stereo not shown) [Entry 5]
7 | 0.298 µM | 87.6% | O=C1OC(CN2CCN(C(c3ccccc3)c3ccccc3)CC2)CN1C1CC1 (stereo not shown) [Entry 7]
